Test [1] concerns testicular tissue comprising tubules and germ cells. The test is described as follows: Human testicular tissue culture: morphology and germ cell proliferation (EdU/DDX4). The class given is cell-based.
From the text: Tissue preparation: Whole testes are removed from cadaveric organ donors by DonorConnect staff, which are picked up by Utah team and transported to research lab on ice. Testicular tissues are cut by 3-5 mm by dimeter in size using surgical scissors and tweezers.
Culture media preparation: the base media is αMEM+10% KSR. We first tested various small molecular inhibitors/ligands with different concentrations in the base media to culture testicular tissues.
Tissue culture: Place three pieces of testicular tissue into one well of a 6-well plate with 2 ml of media in each well. The tissue should be fully immersed in media. Place the plate at 34° C. in 5% CO2 in an incubator with culture media changed every other day.
Morphology examination: Measure the sizes of the cultured testicular tissues at different time points, including Day 1, Day 7, Day 14, and Day 21. And then fix the sample for H&E staining.
Germ cell proliferation examination: Add Edu (2 ul into each well) at different time points at Day 0, Day 6, Day 13, Day 20. Harvest the tissue 24 hours later for the germ cell proliferation test. Samples are washed three times by PBS and digested to isolated tubules by collagenase type IV at 37° C. Then wash 3 times by PBS to terminate the digestion and perform whole-mount staining of the tubules with Edu and DDX4/UTF1/SYCP3.
Test [2] has as its system proliferating germ cells in cultured testicular tissue. The test is described as follows: Inhibitor screen in cultured testicular tissue: EdU+ cells per unit area relative to best prior condition. The class given is cell-based, human. Particulars: for EdU+/area (um2) to condition 2: ratio of EdU+ cells per unit area in test condition to condition 2, inhibitor at concentration listed in Table 12. From the text:
In this study, the HIF-1a, apoptosis, inflammation, ROS, and angiogenesis pathways were primarily targeted to help maintain testicular somatic cell function and promote germ cell proliferation. The level of proliferation was quantified by calculating the number of Edu+ cells (EdU stains the cells that are in the process of replication) per unit area (in μm^2) in each condition and using the ratio of this parameter in the test condition to a previously identified best condition to quantify the effect of the tested condition.

Test [3] has as its system testicular germ cell proliferation. The experiment in a line: Screen of SSC / differentiating spermatogonia receptor ligands in the iterative culture process. The class given is cell-based, human. Particulars: ligand at the concentration listed in Table 5; effective to date at improving germ cell proliferation. From the text: A process for identification and selection of receptor ligands capable of improving testicular germ cell proliferation was developed. The process uses expression data obtained by mining scRNA-seq data obtained from testicular tissue (FIG. 27). The process systematically prioritizes candidates for spermatogonia ligands through a series of bioinformatics analyses and filtering. The process comprises identifying and selecting potential ligands based on their receptor expression in State 1 SSCs (active stem cells) and State 2/3 differentiating spermatogonia (differentiated germ cells with strong proliferation ability), or any combination thereof.
More specifically, the approach was based on the single-cell RNA sequencing transcriptome profile of the adult human testis atlas (Guo, J., Grow, E. J., Mlcochova, H., Maher, G. J., Lindskog, C., Nie, X., Guo, Y., Takei, Y., Yun, J., Cai, L., et al. (2018). The adult human testis transcriptional cell atlas. Cell Research 28, 1141. 10.1038/s41422-018-0099-2; the disclosure of all of which is incorporated herein in its entirety), which provides a comprehensive characterization of cell types in the human adult testis. Pseudo-bulk RNA-seq analysis was used, which involves aggregating individual cells into groups to enhance the receptor gene expression signal on SSCs and differentiating spermatogonia. Each individual cell is assigned to its corresponding cell type cluster based and summing the expression values of all cells within each cluster to create pseudo-bulk samples.
The CellTalkDB database was used to identify receptors expressed in SSCs/differentiating spermatogonia. Specifically, the receptors whose expression in SSCs/differentiating spermatogonia ranks within the top 150 were selected, as expression levels below this point are generally low in these cell populations. […] This filtering step helps to focus on receptors that are more specific to the target cell populations. Using the CellTalkDB database, the corresponding ligands for the selected receptors were then identified. The ligand candidates were prioritized based on their expression levels in the testes, and their known functionality.
The identified ligands were then used in the iterative process of the instant disclosure for identifying culture conditions that support testicular germ cell proliferation in vitro to refine the culture conditions.

The values below come from patent US20230399608A1, “PROCESS FOR ESTABLISHING A HUMAN TESTICULAR TISSUE CULTURE SYSTEM” (PATERNA BIOSCIENCES INC., priority 2021, published 2023).

With `CS[C@H]1SC[C@H]2C(=O)N(C)[C@@H](C(C)C)C(=O)OC[C@@H](NC(=O)c3cnc4ccccc4n3)C(=O)N[C@@H](C)C(=O)N(C)[C@@H]1C(=O)N(C)[C@@H](C(C)C)C(=O)OC[C@@H](NC(=O)c1cnc3ccccc3n1)C(=O)N[C@@H](C)C(=O)N2C` [echinomycin, Echinomycin], the germ cell survival entry in test [1] (even two weeks after start of culture) is on record as “helps germ cell survival”. Besides, in test [1] (inhibitor added to base culture media), the “maintenance of testicular tissue structure” value was “helps maintain testicular tissue structure”.

In the case of `c1cc(CN2CCCNCCNCCCNCC2)ccc1CN1CCCNCCNCCCNCC1` [Plerixafor], in test [2], the “EdU+/area (um2) to condition 2” value came to 1.4.

As to `CC(C)=CCC[C@](C)(O[C@@H]1O[C@H](CO)[C@@H](O)[C@H](O)[C@H]1O)[C@H]1CC[C@]2(C)[C@@H]1[C@H](O)C[C@@H]1[C@@]3(C)CC[C@H](O)C(C)(C)[C@@H]3[C@@H](O[C@@H]3O[C@H](CO)[C@@H](O)[C@H](O)[C@H]3O[C@@H]3OC[C@@H](O)[C@H](O)[C@H]3O)C[C@]12C` [Notoginsenoside R1], the “EdU+/area (um2) to condition 2” value in test [2] is 1.5.

`C[C@]12CC[C@H]3[C@@H](CC[C@]4(O)C[C@@H](O)CC[C@]34C=O)[C@@]1(O)CC[C@@H]2C1=CC(=O)OC1` [Strophanthidin]: the “EdU+/area (um2) to condition 2” value in test [2] turned out to be 2.2.

With `O=C(Nc1ccc([N+](=O)[O-])cc1O)Nc1ccccc1Br` [SB225002], in test [2], the “EdU+/area (um2) to condition 2” value is listed as 1.7.

`C[C@@H]1[C@H](O)[C@@H](C)/C=C/C=C/CC/C=C/C=C/C=C/C=C/C(O[C@H]2O[C@H](C)[C@@H](O)[C@H](N)[C@@H]2O)CC2O[C@](O)(CC(O)C(O)CCC(O)CC(O)CC(O)CC(=O)O[C@H]1C)CC(O)C2C(=O)O` (stereo partly drawn) [Nystatin]: in test [2] (added to first culture condition, FIG. 31 / Table 12), the “improving germ cell proliferation” value is “effective at improving germ cell proliferation”. Also, the “EdU+/area (um2) to condition 2” value in test [2] is given as 2.1.

B1: rh ADAM10: ligand of CADM1/TSPAN14/TSPAN15/TSPAN12 (protein, UniProt O14672 214-748, looked up)
Disintegrin and …: TTSAEKNTCQLYIQTDHLFFKYYGTREAVIAQISSHVKAIDTIYQTTDFSGIRNISFMVKRIRINTTADEKDPTNPFRFPNIGVEKFLELNSEQNHDDYCLAYVFTDRDFDDGVLGLAWVGAPSGSSGGICEKSKLYSDGKKKSLNTGIITVQNYGSHVPPKVSHITFAHEVGHNFGSPHDSGTECTPGESKNLGQKENGNYIMYARATSGDKLNNNKFSLCSIRNISQVLEKKRNNCFVESGQPICGNGMVEQGEECDCGYSDQCKDECCFDANQPEGRKCKLKPGKQCSPSQGPCCTAQCAFKSKSEKCRDDSDCAREGICNGFTALCPASDPKPNFTDCNRHTQVCINGQCAGSICEKYGLEECTCASSDGKDDKELCHVCCMKKMDPSTCASTGSVQWSRHFSGRTITLQPGSPCNDFRGYCDVFMRCRLVDADGPLARLKKAIFSPELYENIAEWIVAHWWAVLLMGIALIMLMAGFIKICSVHTPSSNPKLPPPKPLPGTLKRRRPPQPIQQPQRQRPRESYQMGHMRR
On to B1, for which the Effective entry in test [3] is listed as “No”.
